Marks after values point to notes of the source that are not given here.
Key:
[1] = test system: MRC-5 cells (nontransformed human lung fibroblast); test: MTT assay; type: cell-based
[2] = test system: MDA-MB 231 cells (breast cancer); test: MTT assay; type: cell-based, human; conditions: data not shown
[3] = Superoxide anion radical scavenging activity (NBT/NADH/PMS); type: biochemical; conditions: mean ± SD, triplicate
Protocol: All chemicals for the antioxidant activity test were purchased from Sigma Aldrich. All measurements were conducted in triplicate, and a Shimadzu UV-1800 spectrophotometer was used for all measurements during antioxidant activity experiments. The IC50 value was used for comparing different radical scavenging effects between investigated extracts, isolated compounds, and positive controls. […] [75] with modifications. […] To initiate the reaction, 0.1 mL of phenazine methosulfate (PMS) solution ([…] in 0.1 M phosphate buffer at pH 7.4) was added to each tube. The mixture was incubated at room temperature for 5 min, and then the absorbance was measured at 560 nm relative to the blank. Ascorbic acid, gallic acid, and Trolox were used as positive controls, and a decrease in absorbance indicated increased superoxide anion radical scavenging activity. […] Ac stands for absorbance of the control (which contains all reagents, except the tested extract or compound), and As is the absorbance of the sample.

P. aeruginosa biofilm = test: Biofilm metabolic activity by resazurin; type: cell-based, Pseudomonas aeruginosa; conditions: Figure 3
Protocol: Resazurin (7-hydroxy-3H-phenoxazin-3-one-10-oxide) is a viability dye used to assess the metabolic activity of biofilms. After incubation at 37 °C/48 h, a volume of 10 µL of resazurin indicator solution was added to each well. Plates were incubated in the dark for 3 h at 37 °C. The OD was measured at 590 nm using an enzyme-linked immunosorbent assay (ELISA) plate reader. In addition, the color change from purple to pink indicated the metabolic activity of the formed biofilm.

[4] = test system: HCT 116 cells (colon cancer); test: MTT assay; type: cell-based, human
[5] = DPPH radical scavenging activity; type: biochemical; conditions: mean ± SD, triplicate
Protocol: All chemicals for the antioxidant activity test were purchased from Sigma Aldrich. All measurements were conducted in triplicate, and a Shimadzu UV-1800 spectrophotometer was used for all measurements during antioxidant activity experiments. The IC50 value was used for comparing different radical scavenging effects between investigated extracts, isolated compounds, and positive controls. […] [71] with certain modifications. […] The solution was prepared ex tempore and stored in a tinted bottle in the refrigerator until the experiments were performed. […] The reaction mixture was vortexed and allowed to incubate in the dark for one hour, after which the absorbance was measured at 517 nm relative to the blank. […] Ac stands for absorbance of the control (which contains all reagents, except the tested extract or compound), and As is the absorbance of the sample.

Substance: usnic acid
- GI50 (50% growth inhibition) ([1]; MRC-5, 24 h): 42.97 ± 1.56 mg/L
- IC50 ([1]; MRC-5, 24 h): 66.18 ± 1.72 mg/L
- TGI (total growth inhibition) ([1]; MRC-5, 24 h): >100 mg/L
- GI50 (50% growth inhibition) ([1]; MRC-5, 48 h): 41.31 ± 0.56 mg/L
- IC50 ([1]; MRC-5, 48 h): 78.54 ± 0.87 mg/L
- TGI (total growth inhibition) ([1]; MRC-5, 48 h): 93.25 ± 0.08 mg/L
- GI50 (50% growth inhibition) ([1]; MRC-5, 72 h): 36.73 ± 0.92 mg/L
- IC50 ([1]; MRC-5, 72 h): 53.14 ± 1.04 mg/L
- TGI (total growth inhibition) ([1]; MRC-5, 72 h): 89.15 ± 0.25 mg/L
- Overall inhibitory effect (MTT), in words [2]: of minor importance
- Superoxide Anion Radical Scavenging Activity (IC50) [3]: 90.32 ± 0.95 ^a,b,c,d µg/mL
- Metabolic activity of biofilm compared to the growth control (P. aeruginosa biofilm): higher
- GI50 (50% growth inhibition) ([4]; HCT 116, 24 h): 41.94 ± 3.12 mg/L
- IC50 ([4]; HCT 116, 24 h): >100 mg/L
- TGI (total growth inhibition) ([4]; HCT 116, 24 h): 79.12 ± 1.18 mg/L
- GI50 (50% growth inhibition) ([4]; HCT 116, 48 h): 27.21 ± 1.94 mg/L
- IC50 ([4]; HCT 116, 48 h): 83.99 ± 4.22 mg/L
- TGI (total growth inhibition) ([4]; HCT 116, 48 h): 63.58 ± 0.90 mg/L
- GI50 (50% growth inhibition) ([4]; HCT 116, 72 h): 15.87 ± 2.89 mg/L
- IC50 ([4]; HCT 116, 72 h): 23.79 ± 2.10 mg/L
- TGI (total growth inhibition) ([4]; HCT 116, 72 h): 64.91 ± 1.44 mg/L
- DPPH Radical Scavenging Activity (IC50) [5]: 64.92 ± 1.06 ^a,b,c,d µg/mL
